In patent US9145392B2, “Imidazole amines as modulators of kinase activity” (Merck Patent GmbH, priority 2011, dated 2015):

What was measured:
[1] = molecular target: His-AKT (Full Length) (Homo sapiens (Human), UniProt P31749); assay: AKT enzyme assay; format: biochemical; conditions: read-out: IC50 AKT
[2] = molecular target: P70S6K (T412E mutant) (Homo sapiens (Human), UniProt P23443, T412E); assay: P70S6K enzyme assay; format: biochemical; conditions: read-out: IC50 p70S6K
Outline: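 Read-out is the substrate/phosphopeptide ratio from mobility-shift electrophoresis on a LabChip 3000.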

Sequence of P70S6K (T412E mutant) (P23443 whole entry T412E): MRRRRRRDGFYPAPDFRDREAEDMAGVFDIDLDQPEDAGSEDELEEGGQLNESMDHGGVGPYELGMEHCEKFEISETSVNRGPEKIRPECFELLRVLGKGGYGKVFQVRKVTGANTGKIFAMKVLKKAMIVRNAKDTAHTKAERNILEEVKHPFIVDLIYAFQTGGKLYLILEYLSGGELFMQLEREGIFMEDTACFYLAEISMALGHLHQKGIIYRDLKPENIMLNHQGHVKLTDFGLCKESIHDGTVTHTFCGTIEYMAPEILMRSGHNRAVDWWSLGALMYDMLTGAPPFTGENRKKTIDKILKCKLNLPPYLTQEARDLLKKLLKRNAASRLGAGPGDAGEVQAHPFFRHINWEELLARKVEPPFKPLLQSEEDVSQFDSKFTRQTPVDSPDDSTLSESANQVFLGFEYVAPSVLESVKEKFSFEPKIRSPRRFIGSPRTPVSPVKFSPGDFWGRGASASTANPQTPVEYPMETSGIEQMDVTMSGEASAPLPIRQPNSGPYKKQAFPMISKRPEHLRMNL
Sequence of His-AKT (Full Length) (P31749 whole entry): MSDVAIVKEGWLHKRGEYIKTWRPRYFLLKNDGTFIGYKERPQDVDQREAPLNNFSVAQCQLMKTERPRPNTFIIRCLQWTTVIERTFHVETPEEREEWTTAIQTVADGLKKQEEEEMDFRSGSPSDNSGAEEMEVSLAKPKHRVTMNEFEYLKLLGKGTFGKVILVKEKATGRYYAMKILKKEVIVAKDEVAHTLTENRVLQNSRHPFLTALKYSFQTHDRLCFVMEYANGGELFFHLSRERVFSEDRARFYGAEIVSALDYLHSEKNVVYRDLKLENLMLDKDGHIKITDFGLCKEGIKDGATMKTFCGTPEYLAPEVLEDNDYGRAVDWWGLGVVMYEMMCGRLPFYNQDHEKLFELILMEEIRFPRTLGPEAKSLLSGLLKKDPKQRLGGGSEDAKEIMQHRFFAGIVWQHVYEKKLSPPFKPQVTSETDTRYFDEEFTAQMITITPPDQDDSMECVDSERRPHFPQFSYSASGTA

Row | IC50 [1] | IC50 [2] | Compound
1 | 11 nM | 2.7 nM | N#Cc1c(N)ncnc1N1CCC(c2nc(-c3ccc(F)c(C(F)(F)F)c3)cn2C2CCNC2)CC1 (stereo not shown) [Compound 137, 4-amino-6-(4-(4-(4-fluoro-3-(trifluoromethyl)phenyl)-1-(pyrrolidin-3-yl)-1H-imidazol-2-yl)piperidin-1-yl)pyrimidine-5-carbonitrile]
2 | 100 nM | 1.7 nM | NC(=O)c1c(N)ncnc1N1CCC(c2nc(-c3ccc(F)c(C(F)(F)F)c3)cn2C2CCNC2)CC1 (stereo not shown) [Compound 138, 4-amino-6-(4-(4-(4-fluoro-3-(trifluoromethyl)phenyl)-1-(pyrrolidin-3-yl)-1H-imidazol-2-yl)piperidin-1-yl)pyrimidine-5-carboxamide]
3 | 64.5 nM | 13 nM | N#Cc1c(N)ncnc1N1CCC(c2nc(-c3ccc(F)c(C(F)(F)F)c3)cn2CC2CNC2)CC1 [Compound 141, 4-amino-6-(4-(1-(azetidin-3-ylmethyl)-4-(4-fluoro-3-(trifluoromethyl)phenyl)-1H-imidazol-2-yl)piperidin-1-yl)pyrimidine-5-carbonitrile]
4 | 240 nM | 6.4 nM | N#Cc1c(N)ncnc1N1CCC(c2nc(-c3ccc(F)c(C(F)(F)F)c3)cn2C2CNC2)CC1 [Compound 142, 4-amino-6-(4-(1-(azetidin-3-yl)-4-(4-fluoro-3-(trifluoromethyl)phenyl)-1H-imidazol-2-yl)piperidin-1-yl)pyrimidine-5-carbonitrile]
5 | 670 nM | 16 nM | NC(=O)c1c(N)ncnc1N1CCC(c2nc(-c3ccc(F)c(C(F)(F)F)c3)cn2C2CNC2)CC1 [Compound 143, 4-amino-6-(4-(1-(azetidin-3-yl)-4-(4-fluoro-3-(trifluoromethyl)phenyl)-1H-imidazol-2-yl)piperidin-1-yl)pyrimidine-5-carboxamide]
6 | 31 nM | 3.8 nM | N#Cc1c(N)ncnc1N1CCC(c2nc(-c3ccc(F)c(C(F)(F)F)c3)cn2C[C@@H]2CCN2)CC1 [Compound 146, (S)-4-amino-6-(4-(1-(azetidin-2-ylmethyl)-4-(4-fluoro-3-(trifluoromethyl)phenyl)-1H-imidazol-2-yl)piperidin-1-yl)pyrimidine-5-carbonitrile]
7 | 2.9 nM | 1.8 nM | N#Cc1c(N)ncnc1N1CCC(c2nc(-c3ccc(F)c(C(F)(F)F)c3)cn2CC2CCCN2)CC1 (stereo not shown) [Compound 147, 4-amino-6-(4-(4-(4-fluoro-3-(trifluoromethyl)phenyl)-1-(pyrrolidin-2-ylmethyl)-1H-imidazol-2-yl)piperidin-1-yl)pyrimidine-5-carbonitrile]

The next lines start with the compound.

Row | Compound | IC50 [1] | IC50 [2]
8 | NC(=O)c1c(N)ncnc1N1CCC(c2nc(-c3cnoc3)cn2CCN2CCC2)CC1 [Compound 135, 4-amino-6-(4-(1-(2-(azetidin-1-yl)ethyl)-4-(isoxazol-4-yl)-1H-imidazol-2-yl)piperidin-1-yl)pyrimidine-5-carboxamide] | 760 nM | 860 nM
9 | NC(=O)c1c(N)ncnc1N1CCC(c2nc(-c3ccccc3)cn2CCN2CCC2)CC1 [Compound 136, 4-amino-6-(4-(1-(2-(azetidin-1-yl)ethyl)-4-phenyl-1H-imidazol-2-yl)piperidin-1-yl)pyrimidine-5-carboxamide] | 1900 nM | 8.4 nM
10 | CCc1c(N)ncnc1N1CCC(c2nc(-c3ccc(F)c(C(F)(F)F)c3)cn2CCN)CC1 [Compound 139, 6-(4-(1-(2-aminoethyl)-4-(4-fluoro-3-(trifluoromethyl)phenyl)-1H-imidazol-2-yl)piperidin-1-yl)-5-ethylpyrimidin-4-amine] | 6.6 nM | 1.1 nM
11 | NC(=O)c1c(N)ncnc1N1CCC(c2nc(-c3ccc(F)c(C(F)(F)F)c3)cn2CC2CNC2)CC1 [Compound 140, 4-amino-6-(4-(1-(azetidin-3-ylmethyl)-4-(4-fluoro-3-(trifluoromethyl)phenyl)-1H-imidazol-2-yl)piperidin-1-yl)pyrimidine-5-carboxamide] | 27 nM | 2.2 nM
12 | Nc1ncnc(N2CCC(c3nc(-c4ccnc(C(F)(F)F)c4)cn3CCN3CCC3)CC2)c1Cl [Compound 144, 6-(4-(1-(2-(azetidin-1-yl)ethyl)-4-(2-(trifluoromethyl)pyridin-4-yl)-1H-imidazol-2-yl)piperidin-1-yl)-5-chloropyrimidin-4-amine] | 2.5 nM | 1.1 nM
13 | NC(=O)c1c(N)ncnc1N1CCC(c2nc(-c3cn[nH]c3)cn2CCN2CCC2)CC1 [Compound 145, 4-amino-6-(4-(1-(2-(azetidin-1-yl)ethyl)-4-(1H-pyrazol-4-yl)-1H-imidazol-2-yl)piperidin-1-yl)pyrimidine-5-carboxamide] | 2200 nM | 53 nM
14 | Nc1ncnc(N2CCC(c3nc(-c4ccc(F)c(C(F)(F)F)c4)cn3CC3CNC3)CC2)c1Cl [Compound 148, 6-(4-(1-(azetidin-3-ylmethyl)-4-(4-fluoro-3-(trifluoromethyl)phenyl)-1H-imidazol-2-yl)piperidin-1-yl)-5-chloropyrimidin-4-amine] | 16.5 nM | 4.8 nM
15 | Nc1ncnc(N2CCC(c3nc(-c4ccc(F)c(C(F)(F)F)c4)cn3C[C@@H]3CCN3)CC2)c1Cl [Compound 149, (S)-6-(4-(1-(azetidin-2-ylmethyl)-4-(4-fluoro-3-(trifluoromethyl)phenyl)-1H-imidazol-2-yl)piperidin-1-yl)-5-chloropyrimidin-4-amine] | 38 nM | 4.8 nM
16 | NC(=O)c1c(N)ncnc1N1CCC(c2nc(-c3ccc(F)c(C(F)(F)F)c3)cn2C[C@@H]2CCN2)CC1 [Compound 150, (S)-4-amino-6-(4-(1-(azetidin-2-ylmethyl)-4-(4-fluoro-3-(trifluoromethyl)phenyl)-1H-imidazol-2-yl)piperidin-1-yl)pyrimidine-5-carboxamide] | 220 nM | 10 nM
17 | CCc1c(N)ncnc1N1CCC(c2nc(-c3ccc(F)c(C(F)(F)F)c3)cn2CC2CNC2)CC1 [Compound 151, 6-(4-(1-(azetidin-3-ylmethyl)-4-(4-fluoro-3-(trifluoromethyl)phenyl)-1H-imidazol-2-yl)piperidin-1-yl)-5-ethylpyrimidin-4-amine] | 19 nM | 2.2 nM
18 | CCc1c(N)ncnc1N1CCC(c2nc(-c3ccc(F)c(C(F)(F)F)c3)cn2C[C@@H]2CCN2)CC1 [Compound 152, (S)-6-(4-(1-(azetidin-2-ylmethyl)-4-(4-fluoro-3-(trifluoromethyl)phenyl)-1H-imidazol-2-yl)piperidin-1-yl)-5-ethylpyrimidin-4-amine] | 280 nM | 5.2 nM
19 | NC(=O)c1c(N)ncnc1N1CCC(c2nc(-c3ccc(F)c(C(F)(F)F)c3)cn2CC2CCCN2)CC1 (stereo not shown) [Compound 153, 4-amino-6-(4-(4-(4-fluoro-3-(trifluoromethyl)phenyl)-1-(pyrrolidin-2-ylmethyl)-1H-imidazol-2-yl)piperidin-1-yl)pyrimidine-5-carboxamide] | 220 nM | 10 nM
20 | NC(=O)c1c(N)ncnc1N1CCC(c2nc(-c3ccc(F)c(C(F)(F)F)c3)cn2C2CCNCC2)CC1 [Compound 154, 4-amino-6-(4-(4-(4-fluoro-3-(trifluoromethyl)phenyl)-1-(piperidin-4-yl)-1H-imidazol-2-yl)piperidin-1-yl)pyrimidine-5-carboxamide] | 480 nM | 3 nM
